Measured values published in patent US8148388B2, “2,4 (4,6) pyrimidine derivatives” (Janssen Pharmaceutica, N.V., priority 2004, dated 2012).

How the values were obtained:
Type in all cases: biochemical
Abl (h) = Abl (h) (Homo sapiens, UniProt P00519); experiment: Abl human kinase assay (glass-fiber filter); conditions: test concentration of 10^−6M; for inhibition at 1 µM: read-out: C1 score (inhibition of Abl human)
CSK (h) = CSK (h) (Homo sapiens, UniProt P41240); experiment: CSK human kinase assay (glass-fiber filter); conditions: test concentration of 10^−6M; for inhibition at 1 µM: read-out: C2 score (inhibition of CSK human)
Method: In the glass-fiber filter technology the activity of the kinase of interest is measured using an appropriate substrate that is incubated with the aforementioned kinase protein in the presence of (^33P) radiolabeled ATP. (^33P) Phosphorylation of the substrate is subsequently measured as radioactivity bound on a glass fiber-filter.
All kinases are pre-diluted to a 10× working concentration prior to addition into the assay. The composition of the dilution buffer for each kinase is detailed below.
In a final reaction volume of 25 μl, CSK (h) (5-10 mU) is incubated with 50 mM Tris pH 7.5, 0.1 mM EGTA, 0.1 mM Na3VO4, 0.1% β-mercaptoethanol, 0.1 mg/ml poly(Glu, Tyr) 4:1, 10 mM MnCl2, 10 mM MgAcetate and [γ-^33P-ATP] (specific activity approx. 500 cpm/pmol, concentration as required). The reaction is initiated by the addition of the MgATP mix. After incubation for 40 minutes at room temperature, the reaction is stopped by the addition of 5 μl of a 3% phosphoric acid solution. 10 μl of the reaction is then spotted onto a Filtermat A and washed three times for 5 minutes in 75 mM phosphoric acid and once in methanol prior to drying and scintillation counting.

Lck (h) = Lck (h) (Homo sapiens, UniProt P06239); experiment: Lck human kinase assay (glass-fiber filter); conditions: test concentration of 10^−6M; for inhibition at 1 µM: read-out: C9 score (inhibition of Lck human)
Chain of Lck (h) (P06239 whole entry): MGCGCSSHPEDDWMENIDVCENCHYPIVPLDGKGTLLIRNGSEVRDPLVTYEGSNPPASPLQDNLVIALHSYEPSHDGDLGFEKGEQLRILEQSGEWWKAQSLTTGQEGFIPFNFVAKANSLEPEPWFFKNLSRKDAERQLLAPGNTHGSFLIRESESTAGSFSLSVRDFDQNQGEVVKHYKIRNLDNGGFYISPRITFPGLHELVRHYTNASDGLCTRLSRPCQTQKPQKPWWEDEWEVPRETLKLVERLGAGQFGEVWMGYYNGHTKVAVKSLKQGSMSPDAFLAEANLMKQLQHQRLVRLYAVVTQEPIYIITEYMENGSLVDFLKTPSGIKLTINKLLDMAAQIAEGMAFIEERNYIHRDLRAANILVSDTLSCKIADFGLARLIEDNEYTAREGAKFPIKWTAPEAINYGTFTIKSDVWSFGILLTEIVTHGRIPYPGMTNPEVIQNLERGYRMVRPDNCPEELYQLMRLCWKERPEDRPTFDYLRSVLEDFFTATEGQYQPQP
How it was run: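 Kinase activity measured as transfer of (^33P) from radiolabeled MgATP to substrate, captured on P30 glass-fiber filtermat, washed in 75 mM phosphoric acid and methanol, then scintillation counted.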

Yes (h) = Yes (h) (Homo sapiens, UniProt P07947); experiment: Yes human kinase assay (glass-fiber filter); conditions: test concentration of 10^−6M; for inhibition at 1 µM: read-out: C11 score (inhibition of Yes human)
Chain of Yes (h) (P07947 whole entry): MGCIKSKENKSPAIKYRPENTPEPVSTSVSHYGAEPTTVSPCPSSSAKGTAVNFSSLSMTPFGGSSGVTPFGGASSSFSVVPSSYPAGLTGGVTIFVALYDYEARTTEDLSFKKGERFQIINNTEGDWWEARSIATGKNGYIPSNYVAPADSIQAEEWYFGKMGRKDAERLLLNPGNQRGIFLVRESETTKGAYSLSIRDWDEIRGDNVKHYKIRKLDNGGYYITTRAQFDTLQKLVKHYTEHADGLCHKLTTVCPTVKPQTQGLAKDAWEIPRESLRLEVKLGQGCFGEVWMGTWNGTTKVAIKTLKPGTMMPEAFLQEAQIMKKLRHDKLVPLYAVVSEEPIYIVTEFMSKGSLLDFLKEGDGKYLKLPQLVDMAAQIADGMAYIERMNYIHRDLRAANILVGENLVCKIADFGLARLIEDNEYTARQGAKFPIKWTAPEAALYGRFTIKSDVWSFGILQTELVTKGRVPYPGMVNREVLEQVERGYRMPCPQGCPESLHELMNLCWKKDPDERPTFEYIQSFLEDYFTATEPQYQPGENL
How it was run: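 Yes (h) (5-10 mU) with 0.1 mg/ml poly(Glu, Tyr) 4:1 in 8 mM MOPS pH 7.0, 0.2 mM EDTA, 10 mM MgAcetate and [γ-^33P-ATP], 40 minutes at room temperature. Stopped with phosphoric acid; substrate-bound ^33P counted on glass-fiber filter by scintillation.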

Chain of Abl (h) (P00519 whole entry): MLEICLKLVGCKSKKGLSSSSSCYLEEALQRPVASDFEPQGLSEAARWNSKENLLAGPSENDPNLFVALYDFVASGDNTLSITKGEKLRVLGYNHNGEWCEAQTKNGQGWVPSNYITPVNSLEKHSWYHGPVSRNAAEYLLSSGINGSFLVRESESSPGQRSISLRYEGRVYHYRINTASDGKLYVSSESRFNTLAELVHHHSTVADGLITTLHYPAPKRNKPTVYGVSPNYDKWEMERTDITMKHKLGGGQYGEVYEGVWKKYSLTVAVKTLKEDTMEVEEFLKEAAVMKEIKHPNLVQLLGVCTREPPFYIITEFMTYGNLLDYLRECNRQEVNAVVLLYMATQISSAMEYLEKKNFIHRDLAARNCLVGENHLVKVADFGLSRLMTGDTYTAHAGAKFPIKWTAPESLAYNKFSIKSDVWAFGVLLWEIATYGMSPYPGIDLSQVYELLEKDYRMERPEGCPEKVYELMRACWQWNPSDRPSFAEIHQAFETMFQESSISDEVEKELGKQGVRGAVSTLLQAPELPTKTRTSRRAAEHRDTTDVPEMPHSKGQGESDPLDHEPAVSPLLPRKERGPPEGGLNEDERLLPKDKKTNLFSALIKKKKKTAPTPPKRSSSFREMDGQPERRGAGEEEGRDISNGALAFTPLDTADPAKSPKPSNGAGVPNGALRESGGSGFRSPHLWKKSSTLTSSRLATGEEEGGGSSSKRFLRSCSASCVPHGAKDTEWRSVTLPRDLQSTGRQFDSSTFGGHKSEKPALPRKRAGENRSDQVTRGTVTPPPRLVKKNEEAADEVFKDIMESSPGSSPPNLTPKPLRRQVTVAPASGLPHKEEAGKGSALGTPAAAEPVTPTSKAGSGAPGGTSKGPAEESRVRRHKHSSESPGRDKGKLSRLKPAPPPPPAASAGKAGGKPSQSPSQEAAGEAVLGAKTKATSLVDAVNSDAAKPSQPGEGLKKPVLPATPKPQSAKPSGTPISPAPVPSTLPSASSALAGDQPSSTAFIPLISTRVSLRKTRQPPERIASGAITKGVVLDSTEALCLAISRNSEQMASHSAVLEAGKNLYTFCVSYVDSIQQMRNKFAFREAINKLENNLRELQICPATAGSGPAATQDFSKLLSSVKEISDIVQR

inhibition at 1 µM (Abl (h)) [%]	inhibition at 1 µM (CSK (h)) [%]	inhibition at 1 µM (Lck (h)) [%]	inhibition at 1 µM (Yes (h)) [%]	Molecule	C1 score (inhibition of Abl human) (Abl (h))	C2 score (inhibition of CSK human) (CSK (h))	C9 score (inhibition of Lck human) (Lck (h))	C11 score (inhibition of Yes human) (Yes (h))
10 to 30	30 to 60	30 to 60	10 to 30	N#Cc1cnc2nc1Nc1cccc(c1)OCC(=O)NCCCOc1cccc(c1)N2 [Compound 25, 14,21-dioxa-2,4,8,17,28-pentaazatetracyclo[20.3.1.1~3,7~.1~9,13~]octacosa-1(26),3,5,7(28),9,11,13(27),22,24-nonaene-6-carbonitrile, 16-oxo-]	–	–	–	–
10 to 30	10 to 30	10 to 30	10 to 30	N#Cc1cnc2nc1Nc1cccc(c1)OCC(=O)NCCCCOc1cccc(c1)N2 [Compound 26, 14,22-dioxa-2,4,8,17,29-pentaazatetracyclo[21.3.1.1~3,7~.1~9,13~]nonacosa-1(27),3,5,7(29),9,11,13(28),23,25-nonaene-6-carbonitrile, 16-oxo-]	–	–	–	–
10 to 30	10 to 30	30 to 60	60 to 80	N#Cc1cnc2nc1Nc1cccc(c1)OCCCNC(=O)COc1cccc(c1)N2 [Compound 28, 14,21-dioxa-2,4,8,18,28-pentaazatetracyclo[20.3.1.1~3,7~.1~9,13~]octacosa-1(26),3,5,7(28),9,11,13(27),22,24-nonaene-6-carbonitrile, 19-oxo-]	–	–	–	–
> 80	30 to 60	> 80	> 80	COc1ccc2cc1OCCNC(=O)CNC(=O)Cc1ccc(Cl)cc1Nc1cc(ncn1)N2 [Compound 103, 1H,7H-6,2:12,8-dimetheno-13,1,3,5,7,16,19-benzoxahexaazacyclotricosine-17,20(14H)-dione, 24-chloro-15,16,18,19,21-pentahydro-11-methoxy-]	–	–	–	–
> 80	30 to 60	> 80	> 80	COc1ccc2cc1OCCCNC(=O)C(C)(C)NC(=O)Cc1ccc(Cl)cc1Nc1cc(ncn1)N2 [Compound 105, 6,2:8,12-dimetheno-7H-13,1,3,5,7,17,20-benzoxahexaazacyclotetracosine-18,21-dione, 25-chloro-1,14,15,16,17,19,20,22-octahydro-11-methoxy-19,19-dimethyl-]	–	–	–	–

Further lines, the molecule ahead of its results:

Molecule	inhibition at 1 µM (Abl (h)) [%]	inhibition at 1 µM (CSK (h)) [%]	inhibition at 1 µM (Lck (h)) [%]	inhibition at 1 µM (Yes (h)) [%]	C1 score (inhibition of Abl human) (Abl (h))	C2 score (inhibition of CSK human) (CSK (h))	C9 score (inhibition of Lck human) (Lck (h))	C11 score (inhibition of Yes human) (Yes (h))
1H,7H-2,6: 12,8-dimetheno-14H-13,19,1,3,5,7-benzodioxatetraazacycloheneicosine, 22-bromo-15,16,17,18-tetrahydro-11-methoxy- [Compound 35]	–	–	–	–	4 (Score 4=>80% inhibition)	1 (Score 1=10-30% inhibition)	2 (Score 2=30-60% inhibition)	3 (Score 3=60-80% inhibition)
12,8-metheno-6,2-nitrilo-7H-13,1,5,7,16,19-benzoxapentaazacyclodocosine-3-carbonitrile, 23-chloro-1,14,15,16,17,18,19,20-octahydro-11-methoxy-19-methyl-17-oxo- [Compound 32]	–	–	–	–	3 (Score 3=60-80% inhibition)	1 (Score 1=10-30% inhibition)	4 (Score 4=>80% inhibition)	4 (Score 4=>80% inhibition)
COc1ccc2c(c1)OCCCCCCOc1ccc(Cl)cc1Nc1cc(ncn1)N2 [Compound 34, 11H-6,10-metheno-5H-dibenzo[b,k][1,13,4,6,8,10]dioxatetraazacyclononadecine, 13-chloro-17,18,19,20,21,22-hexahydro-2-methoxy-]	–	10 to 30	10 to 30	10 to 30	–	–	–	–
COc1ccc2cc1OCCCCCCOc1ccc(Br)cc1Nc1cc(ncn1)N2 [Compound 36, 1H,7H-2,6: 12,8-dimetheno-13,20,1,3,5,7-benzodioxatetraazacyclodocosine, 23-bromo-14,15,16,17,18,19-hexahydro-11-methoxy-]	–	–	–	–	2 (Score 2=30-60% inhibition)	1 (Score 1=10-30% inhibition)	2 (Score 2=30-60% inhibition)	1 (Score 1=10-30% inhibition)
COc1ccc2cc1OCCCCCCCOc1ccc(Br)cc1Nc1cc(ncn1)N2 [Compound 37, 1H,7H-2,6: 12,8-dimetheno-14H-13,21,1,3,5,7-benzodioxatetraazacyclotricosine, 24-bromo-15,16,17,18,19,20-hexahydro-11-methoxy-]	–	–	–	–	2 (Score 2=30-60% inhibition)	1 (Score 1=10-30% inhibition)	2 (Score 2=30-60% inhibition)	1 (Score 1=10-30% inhibition)
CC1(C)NC(=O)Cc2ccc(Cl)cc2Nc2cc(ncn2)Nc2ccc(OCCCN3CCOCC3)c(c2)OCCNC1=O [Compound 106, 1H,7H-6,2:8,12-dimetheno-13,1,3,5,7,16,19-benzoxahexaazacyclotricosine-17,20(14H)-dione, 24-chloro-15,16,18,19,21-pentahydro-18,18-dimethyl-11-[3-(4-morpholinyl)propoxy]-]	> 80	60 to 80	> 80	> 80	–	–	–	–
